According to patent US11352315B2, “Compositions and methods comprising a triaryl polyamine” (Curza Global, LLC, priority 2017, dated 2022):
In brackets after ≈: the same amount, converted by molar mass.

What was measured:
[1] = tested on: MRSA; assay: MBEC analysis, MBEC Inoculation Tray (column headed MBC); format: cell-based; conditions: Staphylococcus aureus, 24 hours
Source text: (§1) To determine the MBEC of each polyamine compound, the MBEC Inoculation Tray by Innovotech, formerly known as the Calgary biofilm device, was used. Within this device, biofilms grow on the surface of polystyrene pegs, 96 of which are attached to a lid. These pegs are inserted into a flat bottom 96-well plate. In this instance, the MBEC of a molecule was defined as the concentration of compound (in μg/mL) required to reduce 10^5 or 10^6 CFU/peg (biofilm levels varied by isolate) to 10^2 CFU/peg in a 24-hour period.
(§2) Following the manufacturer's guidelines, biofilms were grown on the surface of each peg by first making a 0.5 McFarland of each isolate. The 0.5 McFarland was diluted 1:100 in CAMHB. Into each well of a flat bottom 96-well plate, 150 μL of broth were pipetted. The plate was shaken at 100 rpm for 24 hours (P. aeruginosa and A. baumannii) or 48 hours (MRSA). The pegs were then placed into a separate flat bottom 96-well plate for 10 seconds with 200 μL of phosphate buffered saline (PBS) in each well to remove nonadherent cells. The lid was then placed into a 96-well plate that contained varying concentrations of antimicrobial with 200 μL per well. The plate was incubated for 24 hours at 37° C. after which time 100 μL of broth were plated on TSA. TSA plates were incubated 24 hours at 37° C. and the number of CFU counted to calculate the CFU/peg. In this instance, the MBEC was defined as the concentration of antimicrobial required to reduce 10^5 or 10^6 CFU/peg to 10^2 CFU/peg in a 24 hour period.

[2] = tested on: P. aeruginosa; assay: as above; format: cell-based; conditions: Pseudomonas aeruginosa, 24 hours
Source text: as §1, §2

[3] = tested on: MRSA; assay: MIC analysis; format: cell-based; conditions: Staphylococcus aureus, 24 hours
Method: (§3) A clinical strain of MRSA, isolated from a patient who underwent arthroscopic knee surgery and characterized by ARUP Laboratories, Salt Lake City, Utah, was used for this study in addition to Pseudomonas aeruginosa ATCC 27853 and Alcanivorax borkumensis ATCC 700651. P. aeruginosa was resuspended in BHI broth, grown overnight at 37° C. and transferred to fresh BHI with 30% glycerol for storage at −80° C. The MRSA isolate was likewise stored in BHI with 30% glycerol at −80° C. […] Before performing MIC analysis and biofilm experiments, the frozen stocks of MRSA and P. aeruginosa were streaked onto Columbia blood agar plates and grown overnight at 37° C. A. borkumensis ATCC 700651 was resuspended from a lyophilized pellet into marine broth, grown overnight at 30° C. and passaged on marine agar plates prior to experimentation.
(§4) To determine the MIC of polyamine compounds, the protocol described herein was used.
(§5) In brief, a 0.5 McFarland of each bacterial isolate was made. A 0.5 McFarland is a measure of turbidity in a liquid sample that contains approximately 1×10^^8 CFU/mL. The 0.5 McFarland standard was diluted in cation adjusted Mueller Hinton Broth (CAMHB), and 50 μL of broth were added to a well of a 96-well plate. In addition, 50 μL of CAMHB that contained a desired concentration of antimicrobial were also added to the well for a final volume of 100 μL and a final concentration of approximately 5×10^4 CFU/well (which equated to approximately 5×10^5 CFU/mL). Each well contained a desired amount of polyamine compound in order to experimentally determine the MIC. Each 96-well plate was incubated at 37° C. for 24 hours. The contents of each well were plated on tryptic soy agar (TSA). TSA plates were incubated for 37° C. for 24 hours after which the number of CFU were counted and used to calculate the CFU/mL that remained after exposure to varying concentrations of compound. This procedure was repeated n=8 times for each concentration of antimicrobial.

[4] = tested on: P. aeruginosa; assay: MIC analysis; format: cell-based; conditions: Pseudomonas aeruginosa, 24 hours
Method: as §3, §4, §5

[5] = tested on: A. baumannii; assay: MBEC analysis, MBEC Inoculation Tray (column headed MBC); format: cell-based; conditions: Acinetobacter baumannii, 24 hours
Source text: as §1, §2

[6] = tested on: E. coli; assay: as above; format: cell-based; conditions: Escherichia coli, 24 hours
[7] = tested on: E. coli; assay: MIC analysis; format: cell-based; conditions: Escherichia coli, 24 hours
Method: as §4, §5

[8] = tested on: A. baumannii; assay: MIC analysis; format: cell-based; conditions: Acinetobacter baumannii, 24 hours
Method: as §4, §5

[9] = tested on: A. baumannii; assay: EBEC analysis, high number biofilms on PEEK membranes; format: cell-based, Acinetobacter baumannii; conditions: 24 hours
Method: (§6) To determine the efficacy of polyamine compounds against high number biofilms, biofilms were grown on the surface of polyetheretherketone (PEEK) membranes using a membrane biofilm reactor. This reactor was similar to the CDC biofilm reactor, but rather than growing biofilms on coupon surfaces, the reactor was modified to hold PEEK membranes. In short, to grow biofilms within this system, 500 mL of brain heart infusion (BHI) broth were inoculated with 1 mL of a 0.5 McFarland. The reactor was placed on a hot plate set at 34° C. and the bacteria were grown under batch conditions for 24 hours.
(§7) A solution of 10% BHI was then flowed through the reactor at a rate of 6.94 mL/min for an additional 24 hours. PEEK membranes were then removed and placed into 2 mL of CAMHB that contained a desired concentration of polyamine compound or antibiotic. The EBEC was defined as the concentration of antimicrobial required to reduce a biofilm from approximately 10^9 CFU/PEEK membrane to approximately 10^2 CFU/PEEK membrane in a 24-hour period.

[10] = tested on: MRSA; assay: as above; format: cell-based, Staphylococcus aureus; conditions: 24 hours
Method: as §6, §7

MIC [3] [µg/mL]	MIC [4] [µg/mL]	MIC [8] [µg/mL]	SMILES	MBC [1] [µg/mL]	MBC [2] [µg/mL]	MBC [5] [µg/mL]	MBC [6] [µg/mL]	MIC [7] [µg/mL]	EBEC [9] [µg/mL]	EBEC [10] [µg/mL]
16 (≈ 23.4 µM)	16 (≈ 23.4 µM)		CCCCCCNCCCNCCCNCc1cccc(-c2ccccc2-c2cccc(CNCCCNCCCNCCCCCC)c2)c1 [CZ-1-155, N^1,N^1′-([1,1′:2′,1″-terphenyl]-3,3″-diylbis(methylene))bis(N^3-(3-(hexylamino)propyl)propane-1,3-diamine)]	16 (≈ 23.4 µM)	16 (≈ 23.4 µM)					
16 (≈ 25.4 µM)	32 (≈ 50.9 µM)		CC(C)CNCCCNCCCNCc1cccc(-c2ccccc2-c2cccc(CNCCCNCCCNCC(C)C)c2)c1 [CZ-1-152]	16 (≈ 25.4 µM)	32 (≈ 50.9 µM)					
32 (≈ 50.7 µM)	64 (≈ 101 µM)		CC(C)CNCCCNCCCNCc1ccc(-c2cc(-c3ccc(CNCCCNCCCNCC(C)C)cc3)ncn2)cc1 [CZ-1-176, N^1,N^1′-((pyrimidine-4,6-diylbis(4,1-phenylene))bis(methylene))bis(N^3-(3-(isobutylamino)propyl)propane-1,3-diamine)]	32 (≈ 50.7 µM)	64 (≈ 101 µM)					
8 (≈ 12.1 µM)	64 (≈ 97.1 µM)		CC(C)CCNCCCNCCCNCc1ccc(-c2ccnc(-c3ccc(CNCCCNCCCNCCC(C)C)cc3)n2)cc1 [CZ-1-174, N^1,N^1′-((pyrimidine-2,4-diylbis(4,1-phenylene))bis(methylene))bis(N^3-(3-(isopentylamino)propyl)propane-1,3-diamine)]	16 (≈ 24.3 µM)	> 64					
16 (≈ 19.3 µM)	> 64		CC(C)CNCCCNCCCNCc1cccc(-c2ccc(-c3cccc(CNCCCNCCCNCC(C)C)c3)c(CNCCCNCCCNCC(C)C)c2)c1 [CZ-1-153, N^1,N^1′,N^1″-([1,1′:4′,1″-terphenyl]-2′,3,3″-triyltris(methylene))tris(N^3-(3-(isobutylamino)propyl)propane-1,3-diamine)]	16 (≈ 19.3 µM)	> 64					
1 (≈ 1.4 µM)	1 (≈ 1.4 µM)	2 (≈ 2.8 µM)	CCC(C)CNCCCNCCCNCc1ccc(-c2cc(-c3ccc(CNCCCNCCCNCC(C)CC)cc3)cc(C(C)(C)C)c2)cc1 (stereo not drawn) [CZ-1-178, N^1,N^1′-((5′-(tert-butyl)-[1,1′:3′,1″-terphenyl]-4,4″-diyl)bis(methylene))bis(N^3-(3-((2-methylbutyl)amino)propyl)propane-1,3-diamine)]	1 (≈ 1.4 µM)	> 4	4 (≈ 5.61 µM)			500	<250
1 (≈ 1.46 µM)	16 (≈ 23.4 µM)		CCC(CC)CNCCCNCCCNCc1ccc(-c2cccc(-c3ccc(CNCCCNCCCNCC(CC)CC)cc3)c2)cc1 [CZ-1-164, N^1,N^1′-([1,1′:3′,1″-terphenyl]-4,4″-diylbis(methylene))bis(N^3-(3-((2-ethylbutyl)amino)propyl)propane-1,3-diamine)]	1 (≈ 1.46 µM)	16 (≈ 23.4 µM)					
0.5 (≈ 0.73 µM)	16 (≈ 23.4 µM)	64 (≈ 93.4 µM)	CC(C)CNCCCNCCCNCc1cccc(-c2cc(-c3cccc(CNCCCNCCCNCC(C)C)c3)cc(C(C)(C)C)c2)c1 [CZ-1-184, N^1,N^1′-((5′-(tert-butyl)-[1,1′:3′,1″-terphenyl]-3,3″-diyl)bis(methylene))bis(N^3-(3-(isobutylamino)propyl)propane-1,3-diamine)]							
0.5 (≈ 0.675 µM)	8 (≈ 10.8 µM)	16 (≈ 21.6 µM)	CCC(CC)CNCCCNCCCNCc1cccc(-c2cc(-c3cccc(CNCCCNCCCNCC(CC)CC)c3)cc(C(C)(C)C)c2)c1 [CZ-1-183, N^1,N^1′-((5′-(tert-butyl)-[1,1′:3′,1″-terphenyl]-3,3″-diyl)bis(methylene))bis(N^3-(3-((2-ethylbutyl)amino)propyl)propane-1,3-diamine)]							
1 (≈ 1.46 µM)	1 (≈ 1.46 µM)	8 (≈ 11.7 µM)	CC(C)CNCCCNCCCNCc1ccc(-c2cc(-c3ccc(CNCCCNCCCNCC(C)C)cc3)cc(C(C)(C)C)c2)cc1 [CZ-1-177, N^1,N^1′-((5′-(tert-butyl)-[1,1′:3′,1″-terphenyl]-4,4″-diyl)bis(methylene))bis(N^3-(3-(isobutylamino)propyl)propane-1,3-diamine)]	1 (≈ 1.46 µM)	> 4	16 (≈ 23.4 µM)			500	250
4 (≈ 6.36 µM)	16 (≈ 25.4 µM)		CC(C)CNCCCNCCCNCc1ccc(-c2cccc(-c3ccc(CNCCCNCCCNCC(C)C)cc3)c2)cc1 [CZ-1-157, N^1,N^1′-([1,1′:3′,1″-terphenyl]-4,4″-diylbis(methylene))bis(N^3-(3-(isobutylamino)propyl)propane-1,3-diamine)]	4 (≈ 6.36 µM)	16 (≈ 25.4 µM)					>750
1 (≈ 1.52 µM)	4 (≈ 6.09 µM)		CCC(C)CNCCCNCCCNCc1ccc(-c2cccc(-c3ccc(CNCCCNCCCNCC(C)CC)cc3)c2)cc1 (stereo not drawn) [CZ-1-166, N^1,N^1′-([1,1′:3′,1″-terphenyl]-4,4″-diylbis(methylene))bis(N^3-(3-((2-methylbutyl)amino)propyl)propane-1,3-diamine)]	1 (≈ 1.52 µM)	8 (≈ 12.2 µM)					

SMILES	MIC [3] [µg/mL]	MIC [4] [µg/mL]	MIC [8] [µg/mL]	MBC [1] [µg/mL]	MBC [2] [µg/mL]	MBC [5] [µg/mL]	MBC [6] [µg/mL]	MIC [7] [µg/mL]	EBEC [9] [µg/mL]	EBEC [10] [µg/mL]
CCCCC(CC)CNCCCNCCCNCc1ccc(-c2cccc(-c3ccc(CNCCCNCCCNCC(CC)CCCC)cc3)c2)cc1 (stereo not drawn) [CZ-1-161, N^1,N^1′-([1,1′:3′,1″-terphenyl]-4,4″-diylbis(methylene))bis(N^3-(3-((2-ethylhexyl)amino)propyl)propane-1,3-diamine)]	1 (≈ 1.35 µM)	16 (≈ 21.6 µM)	4 (≈ 5.4 µM)	2 (≈ 2.7 µM)	16 (≈ 21.6 µM)	4 (≈ 5.4 µM)	1 (≈ 1.35 µM)	1 (≈ 1.35 µM)		
CC(C)CNCCCNCCCNCc1ccc(-c2ccccc2-c2ccc(CNCCCNCCCNCC(C)C)cc2)cc1 [CZ-1-154, N^1,N^1′-([1,1′:2′,1″-terphenyl]-4,4″-diylbis(methylene))bis(N^3-(3-(isobutylamino)propyl)propane-1,3-diamine)]	4 (≈ 6.36 µM)	32 (≈ 50.9 µM)		4 (≈ 6.36 µM)	> 32		16 (≈ 25.4 µM)	16 (≈ 25.4 µM)		
